pIC50: −log10 of the molar value. Active and inactive are the calls of the source.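 The calls were made as follows: active = peak hERG inhibition over 30% at some tested dose, together with a fitted dose response curve; inactive = no hERG inhibition at any dose, or no curve fitted.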
Target: Voltage-gated inwardly rectifying potassium channel KCNH2 (Homo sapiens) (UniProt Q12809)
Experiment: block of human KCNH2 potassium channel – cell-based, FluxOR thallium flux, concentration-response, set 4, selectivity assay for KCNK9 inhibitor project, SAR follow-up (AID 623883)
Settings: hERG-expressing cells; for fluorescence ratio, lower = inhibition: at 30 µM (top of the series); for pIC50: FluxOR thallium flux fluorescence

Voltage-gated inwardly rectifying potassium channel KCNH2 (Homo sapiens), sequence (Q12809 whole entry, looked up): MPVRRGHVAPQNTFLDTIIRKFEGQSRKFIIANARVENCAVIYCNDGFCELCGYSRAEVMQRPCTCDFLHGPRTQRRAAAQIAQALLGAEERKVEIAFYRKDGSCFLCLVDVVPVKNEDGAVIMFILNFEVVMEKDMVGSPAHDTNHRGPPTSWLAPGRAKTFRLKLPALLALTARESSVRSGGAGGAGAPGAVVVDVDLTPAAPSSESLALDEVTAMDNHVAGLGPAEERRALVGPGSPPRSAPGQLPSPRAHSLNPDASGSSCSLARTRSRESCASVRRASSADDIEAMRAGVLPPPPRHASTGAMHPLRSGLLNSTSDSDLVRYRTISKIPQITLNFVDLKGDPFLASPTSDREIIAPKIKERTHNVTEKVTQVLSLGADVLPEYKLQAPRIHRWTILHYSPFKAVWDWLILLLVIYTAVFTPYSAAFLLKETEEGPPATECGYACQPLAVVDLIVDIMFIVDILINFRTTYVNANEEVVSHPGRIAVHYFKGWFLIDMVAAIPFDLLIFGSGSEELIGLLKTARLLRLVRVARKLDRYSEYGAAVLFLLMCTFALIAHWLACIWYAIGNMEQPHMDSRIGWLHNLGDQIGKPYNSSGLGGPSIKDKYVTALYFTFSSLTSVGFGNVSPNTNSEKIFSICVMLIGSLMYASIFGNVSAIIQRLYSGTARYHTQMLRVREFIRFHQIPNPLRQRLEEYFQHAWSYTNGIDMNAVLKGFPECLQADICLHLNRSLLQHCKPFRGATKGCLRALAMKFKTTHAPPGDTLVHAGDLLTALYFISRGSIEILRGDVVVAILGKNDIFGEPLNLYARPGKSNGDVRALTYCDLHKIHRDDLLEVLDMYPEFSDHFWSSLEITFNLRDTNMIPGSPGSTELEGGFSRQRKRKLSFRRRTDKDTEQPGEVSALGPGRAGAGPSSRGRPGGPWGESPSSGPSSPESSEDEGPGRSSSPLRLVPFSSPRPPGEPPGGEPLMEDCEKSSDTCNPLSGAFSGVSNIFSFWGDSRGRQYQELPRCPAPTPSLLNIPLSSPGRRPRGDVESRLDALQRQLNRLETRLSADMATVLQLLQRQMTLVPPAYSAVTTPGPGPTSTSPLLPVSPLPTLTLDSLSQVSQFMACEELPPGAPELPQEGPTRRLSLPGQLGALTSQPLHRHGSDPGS

SMILES	fluorescence ratio, lower = inhibition	pIC50
COc1cccc(-c2n[nH]c(=S)n2[C@H](C)C2CCCCC2)c1	inactive	
CC(C1CC2CCC1C2)n1c(-c2ccco2)nn(CCc2ccncc2)c1=S (stereo not given)	inactive	
CC([C@@H]1CC2CC[C@H]1C2)n1c(-c2ccsc2)n[nH]c1=S (stereo not given in full)	inactive	
C[C@H](C1CCCCC1)n1c(-c2ccccc2F)n[nH]c1=S	inactive	
COc1cccc(-c2nnc(SSc3nnc(-c4cccc(OC)c4)n3C(C)C3CC4CCC3C4)n2C(C)C2CC3CCC2C3)c1 (stereo not given)		6.40
COc1cccc(CCSc2nnc(-c3ccco3)n2C(C)C2CC3CCC2C3)c1 (stereo not given)		5.34
C[C@H]([C@@H]1CC2CC[C@H]1C2)n1c(-c2ccccc2F)n[nH]c1=S	inactive	
CCCC(=O)C1CCN(c2ncnc3c2CN(C(=O)c2ccc(-c4ccccc4)cc2)CC3)CC1		5.11
CC(C1CC2CCC1C2)n1c(SCCc2ccccn2)nnc1-c1ccco1 (stereo not given)		4.90
CC(C1CC2CCC1C2)n1c(SCCN2CCOCC2)nnc1-c1ccco1 (stereo not given)	inactive	
C[C@H](C1CCCCC1)n1c(-c2ccsc2)n[nH]c1=S	inactive	
C[C@@H]([C@@H]1CC2CC[C@H]1C2)n1c(-c2ccco2)n[nH]c1=S	inactive	
C[C@@H]([C@@H]1CC2CC[C@H]1C2)n1c(-c2ccsc2)n[nH]c1=S	inactive	
COc1ccc(NC(=O)CSc2nnc(-c3ccco3)n2C(C)C2CC3CCC2C3)cc1OC (stereo not given)		4.59
COc1ccc(C(=O)CCSc2nnc(-c3ccco3)n2C(C)C2CC3CCC2C3)cc1OC (stereo not given)		4.80
CC(C1C[C@H]2CCC1C2)n1c(-c2ccsc2)n[nH]c1=S (stereo not given in full)	inactive	
CC(C1CC2CCC1C2)n1c(SCC(=O)N2CCN(C)CC2)nnc1-c1ccco1 (stereo not given)	inactive	
COc1ccc(CSc2nnc(-c3ccco3)n2C(C)C2CC3CCC2C3)cc1OC (stereo not given)		4.74
CC(C1CC2CCC1C2)n1c(SCCc2cccc(O)c2)nnc1-c1ccco1 (stereo not given)		5.09
CC(C1CC2CCC1C2)n1c(N)nnc1-c1ccco1 (stereo not given)	inactive	
CC(C1CCN(C)CC1)n1c(-c2ccco2)n[nH]c1=S (stereo not given)	inactive	
C[C@H]([C@@H]1CC2CC[C@H]1C2)n1c(-c2ccco2)n[nH]c1=S	inactive	
COc1cccc(-c2n[nH]c(=S)n2[C@H](C)[C@@H]2CC3CC[C@H]2C3)c1	inactive	
C[C@H]([C@@H]1CC2CC[C@H]1C2)n1c(-c2ccsc2)n[nH]c1=S	inactive	6.08
